The results in this text go back to patent publication US20050003378A1, “Inhibitor of demethylase, antitumorigenic agent, and an in vitro assay for demethylase inhibitors” (priority 2002, published 2005).

Each structure is given as a SMILES string.

The subject of experiment [1] is endogenous demethylase activity. The experiment is described as follows: Active demethylation of in vitro methylated CMV-GFP transiently transfected into HEK 293 cells (HpaII/MspI digestion, Southern blot). Conditions: for percentage of methylated GFP remaining (inhibition of TSA induced active demethylation of methylated CMV-GFP): 0.3 μM TSA, 2, 4, 8 mM compound, harvested 72 hours post transfection.

The subject of experiment [2] is CMV-GFP expression in HEK 293 cells. Description: GFP expression from transfected CMV-GFP in HEK 293 cells (Western blot). Conditions: for TSA induced GFP expression of methylated CMV-GFP: 0.3 μM TSA, increasing amounts of compound (mM). For orientation: In western blotting, separated proteins are transferred to a membrane and probed.
Experiment [3] has as its system HEK 293 human embryonal kidney cells. The experiment is described as follows: Soft agar assay (anchorage independent growth), HEK 293 cells. Conditions: single 24 hour treatment at 4 mM, colonies counted 7 days after plating. In kind it is cell-based. Here is the method: (§1) For analysis of growth in soft agar, 3 ×10^3 cells were seeded in triplicate onto a six well dish in 4 ml of complete medium containing 0.33% agar solution at 37° C. (34). Cells were fed with 2 ml of medium twice weekly. The assay was performed in triplicate, and colonies were counted 21 days after plating for A549 cells, and 7 days after plating for HEK 293 cells.
(§2) AdoMetinhibits the tumorigenic properties of two different transformed cells lines, A549 human lung carcinoma cells and HEK 293 human embryonal kidney cells—It is well documented that a correlation exists between reduced intracellular AdoMet (either as a consequence of decreased folate intake or pharmacological intervention) and an increase in cell proliferation and tumorigenesis (2, 19). […] We therefore decided to test whether treatment with AdoMet could inhibit the transformation potential of HEK 293 cells, which were shown here to be responsive to AdoMet inhibition of demethylase. We also tested AdoMet effects on the transformed state of A549, a human lung non-small cell carcinoma cell line, to exclude the possibility that AdoMet effects are an idiosyncrasy of HEK 293 cells. Cells were treated for 24 hours with either AdoMet or AdoHcy at a concentration of 4 mM. An equal number of living cells were seeded onto soft agar to test their anchorage independent growth, an indicator of tumorigenesis in vitro. […]

For experiment [4], the target named is T1, human MBD2/dMTase (Homo sapiens, UniProt Q9UBB5).
T1 construct: made in house; host or cells: SF9 insect cells (baculovirus, transfer vector pBlueBacHis2 C)
Description: In vitro demethylation assay with recombinant MBD2/dMTase. It counts as biochemical. The following applies: for conversion of methyl-dCMP to dCMP by MBD2/dMTase: 24 hours at 37° C. Here is the method: AdoMet preparations for in vitro studies—AdoMet was prepared as a 50 mM solution in distilled water either by freeze drying a 32 mM AdoMet solution, which contained 10% ethanol and 5 mM sulfuric acid (New England Biolabs) immediately before use or by dissolving lyophilized powder (SIGMA) in distilled water. To control for possible nonspecific effects of remnants of the AdoMet storage buffer we freeze dried a solution of 5 mM sulfuric acid and 10% ethanol under the same conditions as done with the AdoMet solution and added distilled water after lyophilizing. AdoHcy was purchased from SIGMA and dissolved in distilled water at a 50 mM concentration.
Purification of recombinant MBD2/dMTase from SF9 cells—A fragment containing human MBD2/dMTase was excised from pCR2.1-dMTase (10) with BamHI and XhoI and transferred to the Baculovirus expression transfer vector pBlueBacHis2 C (Invitrogen). PBlueBacHis2 C-MBD2/dMTase and Bac-N-Blue viral DNA were co-transfected into the SF9 insect cell line, and recombinant viruses were isolated, identified and amplified according to the manufacturer's protocol (Invitrogen) with no modifications. High titer P3 viral stocks were used for infections. Insect SF9 cells were cultured in spinner flasks to a density of 2.5×10^6 cells/ml in Grace's Insect Cell Culture Medium Supplemented (1×) from Life Technologies. For infection, 5×10^6 cells were plated in 10 cm tissue culture plates (Sarstedt) and allowed to settle and attach for 30 minutes. The culture medium was removed and was replaced with 10 ml of the same medium containing MBD2/dMTase virus at a multiplicity of infection of 10. The cells were cultured with the virus for 5 days at 27° C. and were then harvested by scraping in cold phosphate buffered saline. Cell pellets from 10 plates were frozen and kept at −70° C. until they were used for enzyme purification. Frozen pellets were thawed in 5 ml of lysis buffer (10 mM Tris-HCl pH 8.0, 5 mM MgCl2, 500 mM NaCl, 0.05% Tween 20, 10% glycerol and 10 mM imidazole) containing 1 μg/ml of the following protease inhibitors: aprotinin, leupeptin and pefablock. Protease inhibitors were added to all the solutions used in the purification. The homogenates were subjected to two cycles of freezing and thawing (5 minutes per step). DNA in the homogenate was sheered by passing through a 18.5 gauge needle 10 times. The extracts were then subjected to 15 cycles of sonication (10 seconds burst, 10 seconds gap per cycle at 20% of maximal output). The extracts were centrifuged at 10,000×g for 35 minutes. The supernatant was transferred into a fresh tube and was recentrifuged for additional 25 minutes at 15,000×g. The extract was filtered through a 5 micron filter to remove any particulate matter and the buffer was exchanged on a PD-10 buffer exchange column (Amersham Pharmacia) with buffer L (10 mM Tris-HCl pH 8.0, 10 mM MgCl2) containing 50 mM NaCl. Recombinant MBD2/dMTase was partially purified by Q-sepharose (Pharmacia) ion exchange chromatography. Q-sepharose beads (1 ml of swollen beads) were washed extensively and preequilibrated with buffer L containing 50 mM NaCl and divided into 3 equal aliquots. The cell extracts were sequentially bound three times to the 3 aliquots of Q-sepharose beads in batch in 15 ml tubes by shaking gently on a Nutator for 45 minutes at 4° C. […]

The test system of experiment [5] is A549 human lung carcinoma cells. The experiment is described as follows: Soft agar assay (anchorage independent growth), A549 cells. In kind it is cell-based. The following applies: single 24 hour treatment at 4 mM, colonies counted 21 days after plating. Here is the method: as §1, §2

T1 sequence (Q9UBB5 150-411 limits assumed): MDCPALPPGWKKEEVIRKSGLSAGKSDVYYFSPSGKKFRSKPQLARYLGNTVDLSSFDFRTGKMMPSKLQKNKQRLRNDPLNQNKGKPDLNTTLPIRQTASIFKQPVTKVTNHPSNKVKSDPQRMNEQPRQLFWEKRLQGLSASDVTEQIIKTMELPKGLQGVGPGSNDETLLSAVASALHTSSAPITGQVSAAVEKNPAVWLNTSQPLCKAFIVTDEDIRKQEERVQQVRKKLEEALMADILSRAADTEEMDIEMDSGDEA

Take `CC(/C=C/C(=O)NO)=C\[C@@H](C)C(=O)c1ccc(N(C)C)cc1` [TSA, Trichostatin A]: in experiment [1] (methylated CMV-GFP, 0.3 μM TSA alone), the “demethylation of methylated CMV-GFP by endogenous demethylase activity” value is reported as “nearly complete demethylation”. Also, the “GFP expression of methylated CMV-GFP” value in experiment [2] (methylated CMV-GFP, TSA alone) was “dramatic induction”.
Regarding `Nc1ncnc2c1ncn2[C@@H]1O[C@H](CSCC[C@H](N)C(=O)O)[C@@H](O)[C@H]1O` [AdoHcy, S-adenosylhomocysteine], the “colony formation in soft agar (anchorage independent growth)” value in experiment [3] and in experiment [5] was “does not inhibit” each time. The “effect of AdoHcy on inhibition of the demethylase reaction by AdoMet (competition experiment)” value in experiment [4] (increasing AdoHcy in presence of 10 mM AdoMet, up to tenfold concentration excess of AdoHcy) is recorded as “does not diminish inhibition”. Also, the “inhibition of demethylation activity of MBD2/dMTase” value in experiment [4] (increasing concentrations of AdoHcy) is “no inhibition”. For the same compound, the “percentage of methylated GFP remaining (inhibition of TSA induced active demethylation of methylated CMV-GFP)” value in experiment [1] (methylated CMV-GFP) is listed as “insignificant effect”. The “TSA induced GFP expression of methylated CMV-GFP” value in experiment [2] (methylated CMV-GFP) is listed as “no significant effect”.
As to `C[S+](CC[C@H](N)C(=O)[O-])C[C@H]1O[C@@H](n2cnc3c(N)ncnc32)[C@H](O)[C@@H]1O` (some centres unmarked) [AdoMet, S-Adenosylmethionine], the “colony formation in soft agar (anchorage independent growth)” value in experiment [3] is reported as “only a minimal number of colonies”; in experiment [5], “no colonies are formed”. Also, the “conversion of methyl-dCMP to dCMP by MBD2/dMTase” value in experiment [4] (2 mM AdoMet) is “greatly reduced”; in experiment [4] (AdoMet concentrations higher than 4 mM), “abolished completely”. Besides, the “inhibition of demethylation attained” value in experiment [4] (maximum inhibition on dose curve, average of 3 independent experiments) is given as 100%. The “percentage of methylated GFP remaining (inhibition of TSA induced active demethylation of methylated CMV-GFP)” value in experiment [1] (methylated CMV-GFP) is “increases in a dose dependent manner”. In experiment [1] (unmethylated CMV-GFP, 8 mM AdoMet), the “de novo methylation of unmethylated CMV-GFP” value is reported as “does not get de novo methylated”. Besides, in experiment [2] (methylated CMV-GFP), the “TSA induced GFP expression of methylated CMV-GFP” value is “decreased in a dose dependent fashion”. Also, the “induction of non-methylated GFP by TSA” value in experiment [2] (unmethylated CMV-GFP, 0.3 μM TSA plus AdoMet) is on record as “no significant effect”.
